Assay results as given in US20150342847A1, “NOVEL DERIVATIVES OF SINAPINIC ACID AND THE COSMETIC OR PHARMACEUTICAL USES THEREOF” (BASF Beauty Care Solutions France SAS, priority 2012, published 2015).

What was measured:
keratinocytes = experiment: Cytotoxicity, MTT cell viability on keratinocytes; format: cell-based; settings: for Percentage cell viability, Mean: MTT
Procedure: Study of cell viability following application of the hydroxytyrosol dihydrosinapate of the invention of formula (IIa) to keratinocytes or melanocytes.
The cells (keratinocytes or melanocytes) were cultured in a 96-well plate at 37° C. under 5% CO2 in an appropriate medium until confluence. The medium was withdrawn and then an amount of 200 μL of a 0.5 mg/mL MTT solution was added. The plates were then incubated at 37° C. for 3 hours, after which the MTT solution was withdrawn from each well and replaced with DMSO. The plates were agitated for 15 minutes, and the optical density was measured at 550 nm.
The negative cytotoxicity control is PBS. The positive cytotoxicity control is 0.25% SDS. 0.1% DMSO was used as control.

[1] = DPPH radical scavenger test (acellular); settings: 30 minutes
Source text: Study of the radical scavenger activity of the hydroxytyrosol dihydrosinapate of the invention of formula (IIa) and of the prior-art ferulic acid derivative in an acellular in vitro model, using DPPH.
1,1-Diphenyl-2-picrylhydrazyl, owing to its paramagnetic structure, is able to accept an electron or a hydrogen radical in order to become a stable diamagnetic molecule.
The addition of a compound which provides electrons gives rise to decoloring of the 1,1-diphenyl-2-picrylhydrazyl in a manner proportional to the number of electrons accepted by the radical, and this decoloration can be monitored by measuring the absorbance at 530 nm (OD530).
[…] At the end of the incubation, the radical scavenger activity of the compound under test is evaluated by measuring the absorbance of the solution at 530 nm.
The results are presented as % inhibition of the DPPH radical, in Table 3a).
The radical scavenger activity of the test product is calculated as a percentage, according to the following formula:
100−((OD530 in the presence of the compound under test/OD530 in the absence of compound)×100)

human tyrosinase = molecular target: T1, human tyrosinase (Homo sapiens, UniProt P14679); experiment: Anti-human tyrosinase activity in normal human melanocytes (MBTH/L-Dopa, OD490); format: cell-based
T1 construct: endogenous in cells; host or cells: normal human melanocytes obtained from abdominal plasty
T1 sequence (P14679 19-529): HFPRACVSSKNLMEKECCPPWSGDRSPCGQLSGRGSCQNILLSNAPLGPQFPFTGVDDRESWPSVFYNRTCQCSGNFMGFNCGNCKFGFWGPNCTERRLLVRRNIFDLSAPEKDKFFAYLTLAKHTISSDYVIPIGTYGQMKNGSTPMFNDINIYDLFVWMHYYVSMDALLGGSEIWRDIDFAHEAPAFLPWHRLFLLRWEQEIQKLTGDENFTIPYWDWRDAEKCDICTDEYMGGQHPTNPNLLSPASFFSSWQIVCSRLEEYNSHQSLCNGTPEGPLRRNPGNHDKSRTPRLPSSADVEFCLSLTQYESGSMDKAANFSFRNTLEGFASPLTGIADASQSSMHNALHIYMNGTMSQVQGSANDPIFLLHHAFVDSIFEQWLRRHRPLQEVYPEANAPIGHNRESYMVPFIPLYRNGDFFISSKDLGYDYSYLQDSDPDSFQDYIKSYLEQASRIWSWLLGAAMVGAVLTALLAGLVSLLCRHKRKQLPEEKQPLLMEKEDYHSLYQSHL
Procedure: Study of the inhibition of tyrosinase by the hydroxytyrosol dihydrosinapate of the invention of formula (IIa), in comparison with the prior-art ferulic acid derivative, by quantitative analysis of the human tyrosinase activity of melanocytes cultured as a monolayer following application of the compound under test. Normal human melanocytes (obtained from abdominal plasty) are seeded in a 24-well plate at 80000 cells per well. They are cultured until confluence, and the compounds under test are applied in the culture media for 24 hours. After 24 hours, the media are removed and the melanocytes are detached by mechanical action. Extraction is carried out by thermal shock and then the supernatants are recovered and incubated with MBTH (methyl benzothiazolinone-hydrazone) (Sigma) and L-Dopa (Sigma). The optical density (OD) at 490 nm (OD490) is measured after 30 minutes of incubation, and the inhibition of tyrosinase is calculated according to the following formula: % inhibition=100−[100×(OD490 sample/level of proteins in sample)/(OD490 negative control/level of proteins in negative control)] The OD490 is therefore related to the level of protein, which is the measurement in each culture well. […] The results are presented as % inhibition of activity of tyrosinase, in Table 2.

[2] = test system: keratinocytes from the A431 line; experiment: Antiinflammatory activity: release of E2 prostaglandins by UVB-irradiated keratinocytes (ELISA); format: cell-based; settings: A431 keratinocytes, 30 μM, UV B 30 mJ/cm2, untreated irradiated control = 100%
Procedure: Study of the antiinflammatory activity of the hydroxytyrosol dihydrosinapate of the invention of formula (IIa), by measurement of the inhibition of release of E2 prostaglandins by keratinocytes under the effect of UVB.
The keratinocytes from the A431 line are cultured in an appropriate medium at 37° C. for 72 hours under 5% CO2. The culture medium is then withdrawn and replaced with the medium containing the products under test, and also the positive and negative controls. The cells are subsequently irradiated with UV B at 30 mJ/cm2. The cells are incubated for an extra 24 hours at 37° C. under 5% CO2. The cell supernatants are subsequently recovered, and the E2 prostaglandins (PGE2) released are quantified by an ELISA assay.
An amount of 100 μL of each sample, control or PGE2 standard is transferred to the wells of a 96-well plate, which are coated with antibodies directed against rat immunoglobulin G (IgG). Then an amount of 25 μL of PGE2-peroxidase conjugate is added to each well, followed by an amount of 25 μL of anti-PGE2 monoclonal antibody. The plate is incubated at 4° C. overnight. The wells are then rinsed and an amount of 100 μL of peroxidase substrate is added. After 15 minutes of incubation at ambient temperature, the optical density is read off at 450 nm. The amount of prostaglandin E2 released after irradiation is deduced from a commercial PGE2 standard range from 0 to 400 pg/mL of PGE2.
The negative control, represented by the cells which were not treated with samples and which underwent irradiation by UV B, gave rise to 100% release of PGE2. The positive experimental control is aspirin, which at 0.03% gave rise to 5%+/−2% release of PGE2.

Structure (SMILES): COc1cc(CCC(=O)OCCc2ccc(O)c(O)c2)cc(OC)c1O [Hydroxytyrosol dihydrosinapate (IIa), hydroxytyrosol dihydrosinapate]
- Percentage cell viability, Mean (keratinocytes; 1 μM): 105.8%
- Percentage cell viability, Mean (keratinocytes; 10 μM): 115.2%
- Percentage cell viability, Mean (keratinocytes; 100 μM): 75.7%
- cytotoxicity (in words) (keratinocytes; 10^−6, 10^−5 and 10^−4 M, tolerated threshold 75% viability): not cytotoxic
- % inhibition of the DPPH radical ([1]; 1 μM): 10.7 +/− 0.59%
- % inhibition of the DPPH radical ([1]; 5 μM): 59.68 +/− 0.89%
- % inhibition of the DPPH radical ([1]; 10 μM): 82.01 +/− 1.05%
- % inhibition of the DPPH radical ([1]; 30 μM): 86.68 +/− 0.44%
- % inhibition of the DPPH radical ([1]; 50 μM): 88.78 +/− 0.49%
- % inhibition of the DPPH radical ([1]; 100 μM): 88.28 +/− 0.56%
- % inhibition of the DPPH radical ([1]; 1000 μM): 89.14 +/− 0.40%
- inhibition of the activity of human tyrosinase (in words) (human tyrosinase; human tyrosinase in the melanocytes): does not inhibit the activity of the human tyrosinase
- inhibition at 1 µM (human tyrosinase; normal human melanocytes, 1 μM, 24 hours, read-out: % inhibition of activity of tyrosinase +/− standard deviation): -5.85%
- inhibition at 10 µM (human tyrosinase; normal human melanocytes, 10 μM, 24 hours, read-out: % inhibition of activity of tyrosinase +/− standard deviation): -4.53%
- inhibition at 100 µM (human tyrosinase; normal human melanocytes, 100 μM, 24 hours, read-out: % inhibition of activity of tyrosinase +/− standard deviation): -36.6%
- % release of PGE2 after irradiation [2]: 22%
